Test results as given in patent US6930110B2, “Substituted alkylaminopyridazinone derivatives, process for the preparation thereof and pharmaceutical composition containing the same” (Egis Gyogyszergyar Rt., priority 2001, dated 2005).
Structures can show the parent of a compound that is named as a salt. Where two headings read alike, the source gives them in different places.

Experiments:
male Wistar rats [1] = test: Effects on blood pressure, radiotelemetry in conscious rats; details: for Mean blood pressure after treatment with test compound (mmHg), Mean: mean arterial blood pressure for 6 hours after oral treatment; for Results of statistical evaluation: test compound compared to placebo, mean arterial blood pressure for 6 hours after treatment
Protocol: (§1) The experiments were performed in conscious, freely moving, male Wistar rats using a radiotelemetry system (Data Sciences International, St. Paul, Minn., USA). Prior to treatments rats were implanted with transmitters (type: TL11M2-C50-PXT) that permitted continues monitoring of arterial blood pressure. Under sterile surgical conditions, catheter of the transmitter was introduced into the abdominal aorta for measurement of arterial blood pressure and the transmitter was sutured to the abdominal wall of animals anaesthetised with pentobarbital-Na (60 mg/kg, i.p.; Nembutal inj. Phylaxia-Sanofi, Budapest). After surgery the animals were treated with an antibiotic (1 ml/kg i.m. Tardomyocel comp. inj. ad us. vet., Bayer A G, Leverkusen, Germany). A 7 day postoperative recovery period was allowed. Radio signals emitted by the transmitters were detected by RLA1000 type receivers placed under each animal's cage. The data were collected, saved and evaluated using the Dataquest IV. software from Data Sciences. The computer was set to sample the parameters for 10 seconds in every second minute.
(§2) The test substances or vehicle (methyl cellulose 0.4% w/v) were administered orally by gavage in a volume of 1 ml/kg at about 10 a.m. The effects of test items were measured for 6 hours. The effect of each compound was compared with that caused by vehicle treatment using two-way analysis of variance for repeated measures with Scheffe's post hoc test.

Male Sprague-Dawley rats = test: Elevated plus-maze test in rats; assay type: in vivo, rat; details: 60 min after treatment, minimal effective dose regarding the time spent in the open arms
Description: Tests have been performed as described by Pellow and co-workers [J. Neurosci. Methods, 14, 149 (1985)]. A wooden cross, 15 cm wide with 100 cm long arms was used for the experiments. The sides and ends of two opposite arms of the cross were equipped with 40 cm high walls, however, the arms were open to the 15×15 cm central area (closed arms). The two other opposite arms were not encircled by walls (open arms).
Male Sprague-Dawley rats weighing 200-220 g were used for the experiments. The animals were placed in the central area of the equipment 60 min after treatment and the following four parameters have been observed for the 5 min test time: • time spent in the open arms, • time spent in the closed arms, • number of entries into the open arms, • number of entries into the closed arms.
The effect was expressed as percent increase in either the time (measured in sec) spent in the open arms or number of entries into the open arms. MEDs (minimal effective dose) were determined for each compound regarding the time spent in the open arms. Buspirone [8-{4-[4-(2-pyrimidinyl)-1-piperazinyl]butyl}-8-azaspiro[4,5]decane-7,9-dione] was used as the reference substance.

male Wistar rats [2] = test: Vogel lick-conflict (drinking conflict) test; assay type: in vivo, rat; details: intraperitoneally, 30 min prior to test, number of tolerated shocks
Protocol: Experiments were performed in a PC operated system (LIIKOSYS, Experimentria, Hungary) consisted of 8 test chambers (20 cm×20 cm×20 cm Plexiglas boxes) each of which was equipped with a water fountain system mounted at appropriate height on the wall of the chamber and metal grid floor for delivering electric shocks. 160-180 g male Wistar rats N=8) were deprived of drinking water 48 h and fasted for 24 h prior to test. Test and reference compounds or vehicle were administered intraperitoneally, 30 min prior to test. All procedures were carried out in a quiet, air-conditioned room between 07:30 and 13:00 h at an ambient temperature of 23±2° C. At the beginning of the test the animals were placed in the test chamber where they had free access to drinking water for a 30 s grace period. After that, electric shocks (600 μA, 0.6 s) were applied through the drinking spout following every 20 licks during the 5 min test period (Vogel et al, 1971). Number of punished licks were recorded and stored by an IBM compatible computer. Means±SEM of numbers of tolerated shocks were calculated in each group, statistical analysis of data was performed by one way ANOVA followed by Duncan's test ([…]). Diazepam [7-chloro-1,3-dihydro-1-methyl-5-phenyl-2H-1,4-benzodiazepine-2-one] was used as the reference substance.

mouse = test: Inhibition of spontaneous motor activity (sedative effect); assay type: in vivo
Protocol: The effect on spontaneous motor activity was investigated according to Borsy and co-workers [Borsy, J. et al, Arch. Int. Pharmacodyn., 124, 180-190 (1960)] in a ten channel Dews instrument, with 1-1 animal in each channel. Animals were placed into the instrument 60 min after per os treatment with either vehicle or test compound, and interruptions of infrared beams were recorded for 30 min. […] Inhibitory doses (ID50)have been determined by regression analysis. Diazepam was used as the reference substance.

male Wistar rats [3] = details: rat, in vivo
Protocol: as §1, §2

[4] = per os, 60 min before test, interruptions of infrared beams recorded for 30 min

| Compound | melting point [°C] | MED in mg/kg po. (Male Sprague-Dawley rats) [mg/kg] | MED in mg/kg ip. (male Wistar rats [2]) [mg/kg] | further results |
| --- | --- | --- | --- | --- |
| CN(CCN1CCN(c2cccc3c2OCCO3)CC1)c1cnn(C)c(=O)c1Cl [Example 17, 4-chloro-5-({2-[4-(2,3-dihydro-benzo[1,4]dioxine-5-yl)-piperazine-1-yl]-ethyl}-methyl-amino)-2-methyl-2H-pyridazine-3-one] | 114 to 116 |  |  |  |
| CN(CCN1CCN(c2cccc3c2OCCO3)CC1)c1cnn(C)c(=O)c1 (as salt: hydrochloride) [Example 16, 5-(2-(4-(2,3-dihydro-benzo[1,4]dioxine-5-yl)-piperazine-1-yl)-ethyl-methyl-amino)-2-methyl-2H-pyridazine-3-one-hydrochloride] | 249 to 251 |  |  |  |
| O=c1cc(NCCCN2CCN(c3cccc4c3OCCO4)CC2)cn[nH]1 [Example 12, 5-{3-[4-(2,3-dihydro-1,4-benzodioxine-5-yl)piperazine-1-yl]-propylamino}-2H-pyridazine-3-one] | 158 to 160 |  |  | Mean blood pressure after treatment with test compound (mmHg), Mean (male Wistar rats [1]): 89.9 mmHg; Results of statistical evaluation (male Wistar rats [1]): N.S. |
| O=C1CC2(CCCC2)CC(=O)N1CCCCN1CCN(c2ncccn2)CC1 [Buspirone, 8-{4-[4-(2-pyrimidinyl)-1-piperazinyl]butyl}-8-azaspiro[4,5]decane-7,9-dione, reference compound] |  | 3.0 |  |  |
| CN1C(=O)CN=C(c2ccccc2)c2cc(Cl)ccc21 [Diazepam, 7-chloro-1,3-dihydro-1-methyl-5-phenyl-2H-1,4-benzodiazepine-2-one, reference compound] |  |  | 5.0 | ID50 in mg/kg po. (mouse; [4]): 7.0 mg/kg |
| O=c1cc(NCCNCCOc2cccc3c2OCCO3)cn[nH]1 [Example 13, 5-{2-[2-(2,3-dihydrobenzo[1,4]dioxine-5-yloxy)ethylamino)-ethylamino)-2H-pyridazine-3-one] | 81 to 83 |  |  |  |
| CC(C)(C)n1ncc(Cl)c(NCCN2CCN(c3cccc4c3OCCO4)CC2)c1=O [Example 8, 2-tert.-butyl-5-chloro-4-{2-[4-(2,3-dihydrobenzo-[1,4]dioxine-5-yl)piperazine-1-yl]ethylamino}-2H-pyridazine-3-one] | 177 to 178 |  |  | Mean blood pressure after treatment with test compound (mmHg), Mean (male Wistar rats [1]): 95.4 mmHg; Results of statistical evaluation (male Wistar rats [1]): N.S. |
| O=c1[nH]ncc(Cl)c1NCCCCN1CCN(c2cccc3c2OCCO3)CC1 [Example 4, 5-chloro-4-{4-[4-(2,3-dihydrobenzo[1,4]dioxine-5-yl)-piperazine-1-yl]-butylamino}-2H-piridazine-3-one] |  | 1.0 | 20.0 | ID50 in mg/kg po. (mouse; in vivo, po): 30.0 mg/kg |
| O=c1[nH]ncc(NCCN2CCN(c3cccc4c3OCCO4)CC2)c1Cl [Example 5, 4-chloro-5-{2-[4-(2,3-dihydrobenzo[1,4]dioxine-5-yl)-piperazin-1-yl]-ethylamino}-2H-pyridazine-3-one] | 217 to 219 | 0.003 |  | ID50 in mg/kg po. (mouse; [4]): 11.0 mg/kg |
| O=c1cc(NCCN2CCN(c3cccc4c3OCCO4)CC2)cn[nH]1 [Example 10, 5-{2-[4-(2,3-dihydro-1,4-benzodioxine-5-yl)-piperazine-1-yl]-ethylamino}-2H-pyridazine-3-one] | 244 to 246 | 0.01 | 5.0 | ID50 in mg/kg po. (mouse; [4]): 53.3 mg/kg |
| CN(CCN1CCN(c2cccc3c2OCCO3)CC1)c1cn[nH]c(=O)c1Cl [Example 7, 4-chloro-5-{2-[4-(2,3-dihydrobenzo[1,4]dioxine-5-yl)-piperazine-1-yl]ethyl}methylamino-2H-pyridazine-3-one] |  |  | <10.0 | Results of statistical evaluation (male Wistar rats [3]): N.S.; Mean blood pressure after treatment with test compound (mmHg), Mean (male Wistar rats [3]; po): 97.0 mmHg |
| O=c1[nH]nccc1NCCCNCCOc1cccc2c1OCCO2 [Example 9, 4-{3-[2-(2,3-dihydrobenzo[1,4]dioxine-5-yloxy)ethylamino]-propylamino}-2H-pyridazine-3-one] |  | 0.3 |  | ID50 in mg/kg po. (mouse; [4]): >30.0 mg/kg |
| O=c1[nH]nccc1NCCCNCCOc1cccc2c1OCCO2 (as salt: hydrochloride) [Example 9, 4-{3-[2-(2,3-dihydrobenzo[1,4]dioxine-5-yloxy)ethylamino]-propylamino}-2H-pyridazine-3-one] | 203 to 204 |  |  |  |
| CN(CCN1CCN(c2cccc3c2OCCO3)CC1)c1cnn(C)c(=O)c1 [Example 16, 5-(2-(4-(2,3-dihydro-benzo[1,4]dioxine-5-yl)-piperazine-1-yl)-ethyl-methyl-amino)-2-methyl-2H-pyridazine-3-one-hydrochloride] |  |  |  | Mean blood pressure after treatment with test compound (mmHg), Mean (male Wistar rats [1]): 105.2 mmHg; Results of statistical evaluation (male Wistar rats [1]): N.S. |
| Cn1ncc(NCCN2CCN(c3cccc4c3OCCO4)CC2)c(Cl)c1=O.O [Example 6, 4-chloro-5-{2-[4-(2,3-dihydro-1,4-benzodioxine-5-yl)-piperazine-1-yl]-ethylamino}-2-methyl-2H-piridazine-3-one monohydrate] |  |  | <5.0 | Mean blood pressure after treatment with test compound (mmHg), Mean (male Wistar rats [1]): 106.3 mmHg; Results of statistical evaluation (male Wistar rats [1]): N.S. |
| O=c1[nH]ncc(Cl)c1NCCCN(CCOc1cccc2c1OCCO2)Cc1ccccc1 [Example 3, 4-{3-[benzyl-[2-(2,3-dihydrobenzo[1,4]dioxine-5-yloxy)ethyl]-amino]propylamino}-5-chloro-2H-pyridazine-3-one hydrochloride] |  | 10.0 |  |  |
| CCCN(CCCNc1c(Cl)cn[nH]c1=O)CCOc1cccc2c1OCCO2 [Example 2, 5-chloro-4-(3-{[2-(2,3-dihydrobenzo[1,4]dioxine-5-yloxy)-ethyl]propyl-amino}propylamino)-2H-pyridazine-3-one] | 87 to 89 | 10.0 | 20.0 |  |
| Cn1ncc(NCCN2CCN(c3cccc4c3OCCO4)CC2)cc1=O [Example 14, 5-{2-[4-(2,3-dihydro1,4-benzodioxine-5-yl)-piperazine-1-yl]-ethylamino}-2-methyl-2H-pyridazine-3-one] | 188 to 190 |  |  |  |
| O=c1[nH]ncc(Cl)c1NCCCN(CCOc1cccc2c1OCCO2)Cc1ccccc1 (as salt: hydrochloride) [Example 3, 4-{3-[benzyl-[2-(2,3-dihydrobenzo[1,4]dioxine-5-yloxy)ethyl]-amino]propylamino}-5-chloro-2H-pyridazine-3-one hydrochloride] | 207 to 209 |  |  |  |
| O=c1cc(NCCN2CCN(c3cc(Cl)cc4c3OCCO4)CC2)cn[nH]1 [Example 11, 5-{2-[4-(7-chloro-2,3-dihydrobenzo[1,4]dioxine-5-yl)-piperazine-1-yl]ethylamino}-2H-pyridazine-3-one] | 115 to 117 |  | 20.0 | Mean blood pressure after treatment with test compound (mmHg), Mean (male Wistar rats [1]): 101.5 mmHg; Results of statistical evaluation (male Wistar rats [1]): N.S. |
